Experimental data taken from US4826845A, “3(2H)-pyridazinones and pharmaceutical compositions thereof” (Richter Gedeon Vegyeszeti Gyar T.R., priority 1985, dated 1989).
Counter-ions that a name gives are not always drawn.

Tests used:
[1] = tested on: conscious SH rats; experiment: Antihypertensive effect on conscious, spontaneously hypertensive (SH) rats after oral administration; assay type: in vivo, rat
Description: The systolic blood pressure was indirectly measured by the tail-cuff method. The compounds to be tested were introduced orally (p.o.) to the animals. The blood pressure measurements were made by using a 5-channel automatized equipment.

[2] = tested on: pre- and postsynaptic alpha receptors; experiment: Action on the pre- and postsynaptic adrenergic alpha receptors on the stimulated mouse vas deferens; assay type: cell-based
Experimental: The method of Hughes et al. [Brit. J. Phamacol. 51, pp. 139-140P (1975)] was used. The preparations suspended in a modified Krebs solution at 31° C. were excited by the field stimulation method [rectangular paired impulses with 1 msec interval, supramaximal potential (70 to 75 V=8 to 9 V/cm) and 100 msec impulse interval, pairs repeated in each 10 sec]. After stimulation, norepinephrine (NE) was dropped into the organ bath and a dose-response curve was taken up. Thus, the effect of both the endogenous norepinephrine liberated by stimulation and the exogenous norepinephrine could be studied before and after adding the substance to be tested.

[3] = tested on: adrenergic receptor-mediated calcium channel; experiment: Calcium-antagonism on isolated portal vein: adrenergic receptor-mediated calcium channel; assay type: cell-based; details: rat portal vein, 1×10^-5 mole norepinephrine, 37° C.; read-out: Inhibition of the calcium channel, adrenergic receptor-mediated, IC50
Experimental: The calcium-antagonism of the compounds of the invention was studied on an isolated vessel preparation based on the work of M. Fiol de Cuneo et al. [Arch. Int. Pharmacodyn.
Male CFY rats with a body-weight of 150 to 200 g were bled by decapitation and the portal vein was immediately prepared starting from the hepatic portal. The vessel was longitudinally incised, bound to a transducer registering the contractions and incubated under a tension of 1 g at 37° C. in a calcium-free Krebs-Ringer bicarbonate solution aerated with carbogen. After an equilibration lasting for 30 minutes, the functioning of the receptor-mediated and the K^+ -depolarisation-mediated calcium channels, respectively, were investigated.
All measurements were carried out at 37° C. while bubbling through carbogen.

[4] = tested on: pressor (blood pressure increasing) effect of epinephrine; experiment: Inhibition of the pressor effect of epinephrine; details: in vivo
[5] = tested on: anaesthetized cats; experiment: Hypotensive and heart rate effects on anaesthetized cats after intravenous or intraduodenal administration; assay type: in vivo, cat
Experimental: The cats were anaesthetized by intraperitoneally administering 35 mg/kg of sodium pentobarbital while promoting the spontaneous respiration by the introduction of a trachea cannula. On one side, the femoral vessels are cannulated. The cannula introduced to the femoral vein was used for the intravenous administration of the compounds to be tested. The arterial cannula was connected with a Hellige electromanometer by using a Statham P 23 Db transducer for measuring the mean arterial pressure. The heart rate was continuously registered by means of a cardiotachometer triggered by the pulse wave sign of the electromanometer.
In an other series of these experiments, the compound to be tested was administered through a duodenal tube. The compound of Example 3 (or 12) was used in intravenous doses of 0.5, 1.0 and 5.0 mg/kg as well as in intraduodenal doses of 1.25, 5.0 and 10.0 mg/kg.

[6] = tested on: anaesthetized dogs; experiment: Hypotensive and heart rate effects on anaesthetized dogs after intravenous or intraduodenal administration; assay type: in vivo, Beagle dog
Experimental: (§1) Beagle dogs of both sexes were anaesthetized by the intravenous administration of 40 mg/kg of sodium pentobarbital. A cannula was introduced to the femoral artery and vein each on one side for the intravenous administration of the compounds to be tested as well as for measuring the blood pressure.
In an other series of these experiments, the substances were administered through a duodenal tube. Similarly to the experiments carried out on cats, the systemic arterial blood pressure was measured by using an electromanometer and the cardiotachometer was triggered by the heart rate wave sign. […]

[7] = tested on: renal artery; experiment: Renal arterial vascular resistance in anaesthetized dogs; assay type: in vivo, Beagle dog
Experimental: as §1
In an other series of these experiments, the substances were administered through a duodenal tube. Similarly to the experiments carried out on cats, the systemic arterial blood pressure was measured by using an electromanometer and the cardiotachometer was triggered by the heart rate wave sign.
The renal artery on one side was exposed retroperitoneally and fitted with an electromagnetic flow-meter head for measuring the blood flow of the renal arterial vascular bed and for determining the local vascular resistance.

[8] = tested on: conscious SH rats; experiment: Antihypertensive effect on conscious SH rats after acute oral treatment; assay type: in vivo, rat
Description: (§2) These experiments were accomplished on conscious spontaneously hypertensive (SH) and renally hypertensive rats.
(§3) The systolic blood pressure and heart rate of the animals were indirectly measured by using the tail-cuff method by means of a 5- channel automatized equipment.

[9] = tested on: conscious renal hypertensive rats; experiment: Antihypertensive effect on conscious renal hypertensive rats after acute oral treatment; assay type: in vivo, rat
Description: as §2, §3

[10] = tested on: SH rats; experiment: Subacute treatment of SH rats; assay type: in vivo, rat
Experimental: as §3
The subacute experiments were carried out on SH rats by administering daily twice a 3 mg/kg intraperitoneal dose for 14 days.

[11] = Acute toxicity in rats; details: rat, in vivo
Description: (§4) Male and female CFY rats and mice were used.

[12] = Acute toxicity in mice; details: mouse, in vivo
Description: as §4

[13] = ip, female, i.p., read-out: LD50 i.p.
[14] = ip, male, i.p., read-out: LD50 i.p.
[15] = po, female, p.o., read-out: LD50 p.o.
[16] = po, male, p.o., read-out: LD50 p.o.

O=c1cccnn1CCCNCC1COc2ccccc2O1 (centres unmarked) [Example 3 (or 12), 2-[3-(benzo[1,4]dioxan-2-yl-methylamino)-1-propyl]-3(2H)-pyridazinone hydrochloride]
Decrease in the systolic blood pressure ([1]; 6.25 mg/kg p.o.): -18%
Decrease in the systolic blood pressure ([1]; 12.5 mg/kg p.o.): -25%
Decrease in the systolic blood pressure ([1]; 25 mg/kg p.o.): -32%
Inhibition of the stimulation ([2]; concentration 10^-7 mole): 0%
Inhibition of the stimulation ([2]; concentration 10^-8 mole): 0%
IC50 [3]: 400 nM
inhibition of the pressor effect of epinephrine (in words) [4]: significant inhibition
duration of hypotension ([5]; 0.5 mg/kg i.v.): 60 min
half-life of hypotension ([5]; 0.5 mg/kg i.v.): about 30 minutes
heart rate effect (in words) ([5]; 0.5 mg/kg i.v.): accompanied by bradycardia
hypotension ([5]; 0.5 mg/kg i.v.): 50%
maximum of the hypotension, intravenous versus intraduodenal ([5]; 1.0 mg/kg i.v. versus 1.25 mg/kg intraduodenal): nearly equal
decrease in the blood pressure ([5]; 1.25 mg/kg intraduodenal): 50%
duration of hypotension (detected up to) ([5]; 1.25 mg/kg intraduodenal): up to 2 hours
time of development of hypotension ([5]; 1.25 mg/kg intraduodenal): ≤ 15 min
heart rate effect (in words) ([5]; intraduodenal): significantly diminished
decrease in the systemic arterial blood pressure ([6]; 1.0 mg/kg i.v.): 50%
half-life of the effect ([6]; 1.0 mg/kg i.v.): 30 min
heart rate effect (in words) ([6]; 1.0 mg/kg i.v.): bradycardia was observed during the first 5 minutes, then the alteration was not significant
decay of the hypotensive effect (in words) ([6]; 1.0 mg/kg intraduodenal): only halved at the end of the first hour
decrease in the systemic arterial blood pressure ([6]; 1.0 mg/kg intraduodenal): 30%
tachycardia ([6]; 1.0 mg/kg intraduodenal): about 20%
time maximum effect remained constant ([6]; 1.0 mg/kg intraduodenal): 30 min
time of maximum effect ([6]; 1.0 mg/kg intraduodenal): 5 min
hypotensive activity compared with verapamil (in words) ([6]; any of the two routes): higher than that of verapamil
hypotensive activity compared with prazosine (in words) ([6]; intraduodenal): reached that of prazosine
hypotensive effect (in words) ([6]; intravenous and intraduodenal): strong hypotensive effect
peripheral vasodilatory action in the renal vascular bed compared with prazosine (in words) [7]: reached or eventually surpassed the activity of prazosine
peripheral vasodilatory action in the renal vascular bed compared with verapamil (in words) [7]: stronger effects than verapamil
decrease in resistance of the renal artery ([7]; 1 mg/kg i.v.): about 40%
decrease in resistance of the renal artery ([7]; 1.0 mg/kg intraduodenal): about 40%
hypotension up to the 5th hour ([8]; SH rats, 6.25 mg/kg p.o., up to 5th hour): 16%
antihypertensive effect ([8]; SH rats, 6.25 mg/kg p.o., within one hour): 29%
dose dependence of level and duration of the antihypertensive effect (in words) ([8]; SH rats, 6.25, 12.5 or […] p.o.): increased by increasing the doses
heart rate alteration (in words) ([8]; SH rats, p.o.): no significant heart rate alteration
maximum antihypertensive effect ([9]; 3.125 mg/kg p.o.): 16%
maximum antihypertensive effect ([9]; 12.5 mg/kg p.o.): 24%
antihypertensive effect in the 8th hour (in words) ([9]; 25 mg/kg p.o., 8th hour): significant even in the 8th hour
tachycardia ([9]; p.o.): 18%
time of disappearance of tachycardia (in words) ([9]; p.o.): disappeared in the 2nd to 3rd hours after the treatment
effect on the following days; tachyphylaxia (in words) ([10]; 3 mg/kg i.p. twice daily for 14 days): not altered on the following days of treatment. No signs of tachyphylaxia were observed
maximum antihypertensive effect ([10]; 3 mg/kg i.p. twice daily, 10th day): 22%
LD50 at 336 h [11, 13]: 97.8 mg/kg
LD50 at 336 h [11, 14]: 116 mg/kg
LD50 at 336 h [11, 15]: 400 mg/kg
LD50 at 336 h [11, 16]: 600 mg/kg
LD50 at 336 h [12, 13]: 160 mg/kg
LD50 at 336 h [12, 14]: 160 mg/kg
LD50 at 336 h [12, 15]: 200 mg/kg
LD50 at 336 h [12, 16]: 300 mg/kg
